Read-outs that look alike come from different tables or passages of the source.
Legend:
[1] = system: unprenylated Rap1A (uRap1A); assay: Prenylation assay: Western blot for unprenylated Rap1A in J774.2 macrophages; type: cell-based, mouse; details: 10 or 100 μM, 24 h, FIG. 5A-C
Method: To determine the effect of fluorescent BP probes on protein prenylation, J774.2 mouse macrophages were plated out at 2×10^5 cells/mL in 24-well plates and left to adhere overnight. Cells were then treated with 10 or 100 μM of fluorescent analogues of RIS, dRIS, and ZOL, the respective native BP, or vehicle, for 24 h. Cells were lysed in radioimmunoprecipitation buffer, and proteins were separated by sodium dodecyl sulfate polyacrylamide gel electrophoresis and transferred to polyvinyl difluoride membranes by western blotting. Membranes were then incubated with antibodies to the unprenylated form of Rap1A (uRap1A) and the housekeeping protein β-actin, which were detected by incubation with fluorescently-labeled secondary antibodies and scanning of membranes on a LI-COR Infrared Imager. Results shown are representative of 2 independent experiments. The ratio between abundance of unprenylated RaplA and β-actin is indicated for each sample below the blots in FIG. 5.

[2] = assumed the same as the corresponding fluorescent dye, cited from earlier work
[3] = UV-VIS absorption and fluorescence emission spectra; type: physicochemical; details: 0.1M phosphate buffer (1x PBS for 7d5); ± 1 nm error
Method: All labeled samples were dissolved in water and diluted with 0.1 M phosphate buffer or 1×PBS (for 7d5). Assuming that the labeled bisphosphonates have the same extinction coefficient (E) as the carboxylic acid of the free fluorescent label, the final concentrations for all labeled products were calculated from UV-VIS absorption spectra at λ=493 nm (ε=73000 M^−1 cm^−1 at pH 7.2) for FAM conjugates (7a1-7a3, 7b1, 7c1, 7d1-7d2, 7e1-7e2, 7f1-7f2), λ=567.5 nm (ε=114850 M^−1cm^−1 at pH 7.5) for RhR-X conjugates (7a4, 7b2, 7c2), λ=580 nm (c=72000 M^−1cm^−1 at pH 8.0) for ROX conjugates (7a5, 7b3), λ=648 nm (ε=240000 M^−1cm^−1 at pH 7.2) for AF647 conjugates (7a6, 7b4, 7d3), λ=774 nm (ε=240000 M^−1cm^−1 at pH 7.4) for 800CW conjugates (7d4), λ=644 nm (ε=271000 M^−1cm^−1 at pH 7.4, 1×PBS) for Sulfo-Cy5 conjugates (7d5).
Emission spectra for FAM and RhR-X conjugates were recorded using an excitation wavelength of 490 nm or 520 nm, respectively. Emission spectra for AF647 conjugates and Sulfo-Cy5 conjugates were recorded using an excitation wavelength of 600 nm. Emission spectra of 5(6)-ROX conjugates were recorded using an excitation wavelength of 575 nm. Emission spectra of IRDye CW800 conjugate was recorded using an excitation wavelength of 750 nm. The set-up of excitation slit, emission slit, integration time and increment were determined to get optimal spectra for each compound respectively, depending on the sample concentration and spectrometer used.

[4] = Hydroxyapatite (HAP) column chromatography binding assay; details: pH 6.8, phosphate gradient 1 to 1000 mM; FIG. 3
Method: The fast performance liquid chromatography (FPLC) system consisted of a Waters 650E advanced protein purification system (Millipore Corp., Waters chromatography division, Milford, Mass.), a 600E system controller and a 484 tunable absorbance detector for UV absorbance assessment. Ceramic hydroxyapatite [HAP, […], Macro-Prep® Ceramic Hydroxyapatite Type II 20 μm 100 g, Bio-Rad Laboratories, Inc. Hercules, Calif.] was equilibrated with 1 mM phosphate buffer (pH 6.8) and packed in a 0.66 cm (diameter)×6.5 cm (length) glass column (Omnifit, Bio-chem Valve™ inc., Cambridge, U.K.), which was attached to the Waters 650E advanced protein purification system. Each sample was prepared in 1 mM potassium phosphate buffer, and 100 μL of 1 mM (0.1 μmol) sample was injected into the FPLC system. As a consequence, the compounds were absorbed and subsequently eluted at a flow rate of 2 ml/min by using a linear concentration gradient of phosphate from 1 to 1000 mM at pH 6.8. Fractions of each sample were collected in 80 tubes using an automated fraction collector (Gilson, France) and then used for subsequent ultraviolet (SPECTRAmax PLUS 384, Molecular Devices, CA) or fluorescence spectrometry detection (WALLAC VICTOR™, 1420 MULTILABEL COUNTER, Perkin Elmer, USA). […] The elution profile for each sample was determined in triplicate for statistical analysis (Prism, GraphPad Software, USA). […]

[5] = pKa and protonation status of the heterocyclic nitrogen; type: physicochemical; details: pH 6.0; calculated by Henderson-Hasselbalch equation
Excerpt: The nucleophilicity and Lewis basicity of the nitrogen atom of the three heterocyclic N-BPs studied in this report vary, and these properties appear to be the major determinants of their conjugation reactivity. Thus, the ‘magic linker’ methodology for RIS required modification for ZOL (1d), MIN (1e), and their related analogues (1f). […] The protonation status of the heteroatom at different pH is also critical to the reactivity. […] Under such conditions, more than 50% (˜71.3% calculated) of the nitrogen of RIS will be deprotonated, and able to attack the epoxide ring nucleophilically. However, at pH 6.0, only 18% of the nitrogen of ZOL (22% for MIN) is deprotonated, thus the reactions were very slow (2d) at pH 6.0. At pH 7.0-7.5, reaction was more rapid, but the regioselectivity (N-alkylation vs. O-alkylation) for 1d, 1e, 1f was not as good as for RIS and its analogues (1a, 1b, 1c); 10-20% of side products could be observed, which were confirmed by HPLC, NMR and MS to be the products of N,O(P)-dialkylation (O-alkylation occurs between the phosphonate/carboxylate group of the drug and the epoxide). The reaction rate of MinPC (1f)-epoxide (5) coupling was even slower than ZOL under the same reaction conditions (same reactant ratio, pH 7.5, 40-45° C.), which might be due to a steric effect from the large heterocycle. In addition, the percent of side products was higher and O-alkylation products were also observed in the reaction mixture.
The following publications are incorporated by reference herein in their entirety: • [1] a) R. G. G. Russell, N. B. Watts, F. H. Ebetino, M. J. Rogers, Osteoporos. Int. 2008, 19, 733-759; b) F. Ebetino, A. Hogan, S. Sun, M. Tsoumpra, X. Duan, J. Triffitt, A. Kwaasi, J. Dunford, B. Barnett, U. Oppermann, M. Lundy, A. Boyde, B. Kashemirov, C. McKenna, R. Russell, Bone 2011, 49 20-33. • [2] a) I. Reid, M. Bolland, A. Grey, Bone 2007, 41, 318-320; b) A. Siddiqi, A. Payne, S. Zafar, Oral Surg. Oral Med. Oral Pathol. Oral Radiol. Endod. […]

[6] = parent compounds, ref. [23]; cited from earlier work

fraction of the heterocyclic nitrogen deprotonated [5] [%] | Compound | accumulation of unprenylated Rap1A (anti-prenylation activity) [1] | Extinction coefficient ([2]; pH 7.2, 0.1M phosphate buffer) | Maximum absorption wavelength (λmax (abs), nm) [3] [nm] | Maximum emission wavelength (λmax (em), nm) [3] [nm] | Extinction coefficient ([2]; pH 8.0, 0.1M phosphate buffer) | HAP binding affinity (retention time on HAP column, normalized to RIS) [4] | rank order of mineral binding affinity [6]
 | 1-(3-(3-carboxy-4-(6-hydroxy-3-oxo-3H-xanthen-9-yl)benzamido)-2-hydroxypropyl)-3-(2-hydroxy-2,2-diphosphonoethyl)pyridin-1-ium [Compound 5-FAM-RIS] | clearly detectable | 73,000 (pH 7.2) M^−1cm^−1 | 493 | 521 |  |  | 
 | 1-(3-(4-carboxy-3-(6-hydroxy-3-oxo-3H-xanthen-9-yl)benzamido)-2-hydroxypropyl)-3-(2-hydroxy-2,2-diphosphonoethyl)pyridin-1-ium [Compound 6-FAM-RIS] | clearly detectable | 73,000 (pH 7.2) M^−1cm^−1 | 493 | 517 |  |  | 
 | 16-[2-carboxy-4-({2-hydroxy-3-[4-(2-hydroxy-2,2-diphosphonoethyl)pyridin-1-ium-1-yl]propyl}carbamoyl)phenyl]-3-oxa-9λ^5,23-diazaheptacyclo[17.7.1.1^5,9.0^2,17.0^4,15.0^23,27.0^13,28]octacosa-1(27),2(17),4,9(28), 13,15,18-heptaen-9-ylium [5(6)-ROX-RIS] | shows activity |  | 580 | 606 | 72,000 (pH 8.0) M^−1cm^−1 |  | 
 | O=C(NCC(O)C[n+]1ccn(CC(O)(P(=O)(O)O)P(=O)(O)O)c1)c1ccc(C(=O)O)c(-c2c3ccc(=O)cc-3oc3cc(O)ccc23)c1 (centres unmarked) [Compound 6-FAM-ZOL, 3-(3-(4-carboxy-3-(6-hydroxy-3-oxo-3H-xanthen-9-yl)benzamido)-2-hydroxypropyl)-1-(2-hydroxy-2,2-diphosphonoethyl)-1H-imidazol-3-ium] | retain some activity, although their potencies are weaker than native ZOL | 73,000 (pH 7.2) M^−1cm^−1 | 493 | 516 |  | slightly longer retention time on the HAP column than its 5-isomer | 
22 | O=P(O)(O)C(O)(Cc1cnc2ccccn12)P(=O)(O)O [MIN, (1-Hydroxy-2-imidazo[1,2-a]pyridin-3-yl-1-phosphonoethyl)phosphonic acid] |  |  |  |  |  |  | 
18 | O=P(O)(O)C(O)(Cn1ccnc1)P(=O)(O)O [ZOL, [1-hydroxy-2-(1H-imidazol-1-yl)ethane-1,1-diyl]bis(phosphonic acid)] |  |  |  |  |  |  | 
 | O=P(O)(O)C(Cc1cccnc1)P(=O)(O)O [dRIS, (2-pyridin-3-ylethane-1,1-diyl)bis(phosphonic acid)] |  |  |  |  |  |  | RIS>dRIS>RISPC
